Assay results from ChEMBL document CHEMBL1201862, “PubChem BioAssay data set” (2004).
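Briefly, cells in 96-well plates were exposed to five compound concentrations for 48 h, and endpoints were estimated by linear interpolation. Abbreviation: GI50, concentration required for 50% inhibition of growth.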 Activity calls are given as the source filed them. No stated cut-off is given here; in the data, active = GI50 up to about 1.1 µM and inactive = higher.

How the values were obtained:
Test in all cases: inhibition of tumour cell growth, NCI panel, 48 h
SK-MEL-28 = system: SK-MEL-28
A498 = system: A498
SW-620 = system: SW-620
HL-60 = system: HL-60
Malme-3M = system: Malme-3M
T47D = system: T47D
ACHN = system: ACHN
MDA-MB-435 = system: MDA-MB-435
SF-295 = system: SF-295
U-251 = system: U-251
COLO 205 = system: COLO 205
NCI-H226 = system: NCI-H226
RPMI-8226 = system: RPMI-8226
CCRF-CEM = system: CCRF-CEM
NCI-H460 = system: NCI-H460
IGROV-1 = system: IGROV-1
PC-3 = system: PC-3
HCT-15 = system: HCT-15
SF-268 = system: SF-268
SN12C = system: SN12C

| Structure (SMILES) | GI50 (SK-MEL-28) | GI50 (A498) | GI50 (SW-620) | GI50 (HL-60) | GI50 (Malme-3M) | GI50 (T47D) | GI50 (ACHN) | GI50 (MDA-MB-435) | GI50 (SF-295) | GI50 (U-251) | GI50 (COLO 205) | GI50 (NCI-H226) | GI50 (RPMI-8226) | GI50 (CCRF-CEM) | GI50 (NCI-H460) | GI50 (IGROV-1) | GI50 (PC-3) | GI50 (HCT-15) [µM] | GI50 (SF-268) | GI50 (SN12C) |
| --- | --- | --- | --- | --- | --- | --- | --- | --- | --- | --- | --- | --- | --- | --- | --- | --- | --- | --- | --- | --- |
| CCN(CC)c1ccc(NC(=S)NN(C)C)cc1 | > 10 µM (inactive) | > 10 µM (inactive) | > 10 µM (inactive) | > 10 µM (inactive) | > 10 µM (inactive) | > 10 µM (inactive) | > 10 µM (inactive) | > 10 µM (inactive) | > 10 µM (inactive) | > 10 µM (inactive) | > 10 µM (inactive) | > 10 µM (inactive) | > 10 µM (inactive) | > 10 µM (inactive) | > 10 µM (inactive) | > 10 µM (inactive) | > 10 µM (inactive) | > 10 | > 10 µM (inactive) | > 10 µM (inactive) |
| C=CC[C@]12C=C(OC)[C@@H](O)[C@](OC)(C(c3cc(OC)c4c(c3)OCO4)[C@H]1C)[C@H]2OC(C)=O (stereo not given in full) | > 100 µM (inactive) | > 100 µM (inactive) | > 100 µM (inactive) | 91 µM (inactive) | > 100 µM (inactive) | > 100 µM (inactive) | > 100 µM (inactive) | 94.6 µM (inactive) | > 100 µM (inactive) | > 100 µM (inactive) | > 100 µM (inactive) | > 100 µM (inactive) | > 100 µM (inactive) | > 100 µM (inactive) | > 100 µM (inactive) | > 100 µM (inactive) | 62.5 µM (inactive) | > 100 | 8.34 µM (inactive) | > 100 µM (inactive) |
| Cc1nc(=O)[nH]c(NCCNCCO)c1C(=O)Nc1cccc2cc3ccccc3cc12 | > 100 µM (inactive) | > 100 µM (inactive) | > 100 µM (inactive) | > 100 µM (inactive) | > 100 µM (inactive) | > 100 µM (inactive) | > 100 µM (inactive) | > 100 µM (inactive) | > 100 µM (inactive) | > 100 µM (inactive) | > 100 µM (inactive) | > 100 µM (inactive) | > 100 µM (inactive) | > 100 µM (inactive) | > 100 µM (inactive) | > 100 µM (inactive) | > 100 µM (inactive) | > 100 | > 100 µM (inactive) | > 100 µM (inactive) |
| CCC1OC(=O)CC(O)C(C)C(OC2OC(C)CC(N(C)C)C2O)C(CC=O)CC(C)C(=O)/C=C/C2(C)OC2C1C (stereo not given) | 21.4 µM (inactive) | 25.9 µM (inactive) | 17 µM (inactive) | 12.8 µM (inactive) | 21.7 µM (inactive) | 19.9 µM (inactive) | 19.6 µM (inactive) | 16.8 µM (inactive) | 29 µM (inactive) | 14.8 µM (inactive) | 16.9 µM (inactive) | 16.3 µM (inactive) | 27 µM (inactive) | 4.91 µM (inactive) | > 100 µM (inactive) | 10.3 µM (inactive) | 26.6 µM (inactive) | 18.3 | 27.2 µM (inactive) | 18 µM (inactive) |
| CCOC(=O)c1nc2cc(C(F)(F)F)ccc2nc1Oc1ccc(C(=O)OC)cc1 | > 100 µM (inactive) | > 100 µM (inactive) | > 100 µM (inactive) | 35.1 µM (inactive) | > 100 µM (inactive) | > 100 µM (inactive) | > 100 µM (inactive) | > 100 µM (inactive) | > 100 µM (inactive) | > 100 µM (inactive) | > 100 µM (inactive) | > 100 µM (inactive) | > 100 µM (inactive) | 97.1 µM (inactive) | > 100 µM (inactive) | > 100 µM (inactive) | > 100 µM (inactive) | 51.5 | > 100 µM (inactive) | > 100 µM (inactive) |
| COc1ccc2c(c1OC)C[C@@H]1c3c(cc4c(c3-2)OCO4)CCN1C | 29.2 µM (inactive) | 19.1 µM (inactive) | 29.8 µM (inactive) | 8.63 µM (inactive) | 30.6 µM (inactive) | 28.8 µM (inactive) | 27.5 µM (inactive) | 27.5 µM (inactive) | 15.6 µM (inactive) | 26.9 µM (inactive) | 18.6 µM (inactive) | 18.1 µM (inactive) | 18.5 µM (inactive) | 20.3 µM (inactive) | 32.1 µM (inactive) | 25.4 µM (inactive) | 17.5 µM (inactive) | 22.6 | 37.1 µM (inactive) | 42 µM (inactive) |
